Reference: ChEMBL document CHEMBL1833866, “Synthesis and evaluation of 1-(4-[¹⁸F]fluoroethyl)-7-(4'-methyl)curcumin with improved brain permeability for β-amyloid plaque imaging” (Bioorg Med Chem Lett, 2011)
Blank lines part the entries; values can stand above or below the compound they belong to. Active and inactive are the calls of the source. No cut-off for these calls is given here.

Legend:
[1] = Binding affinity to amyloid beta (1 to 42) after 3 hrs using [125I]IMSB by gamma counter method
Blood [2] = assay: Biodistribution in ICR mouse blood at 1.11 MBq, iv after 2 mins; type: ADME, organism-based; conditions: in vivo
Spleen [3] = assay: Biodistribution in ICR mouse Spleen at 1.11 MBq, iv after 2 mins; type: ADME, organism-based; conditions: in vivo
Liver [4] = assay: Biodistribution in ICR mouse Liver at 1.11 MBq, iv after 120 mins; type: ADME, organism-based; conditions: in vivo, 2 h
Heart [5] = assay: Biodistribution in ICR mouse heart at 1.11 MBq, iv after 120 mins; type: ADME, organism-based; conditions: in vivo, 2 h
Spleen [6] = assay: Biodistribution in ICR mouse Spleen at 1.11 MBq, iv after 30 mins; type: ADME, organism-based; conditions: in vivo, 0.5 h
Kidney [7] = assay: Biodistribution in ICR mouse Kidney at 1.11 MBq, iv after 60 mins; type: ADME, organism-based; conditions: in vivo, 1 h
Brain [8] = assay: Biodistribution in ICR mouse Brain at 1.11 MBq, iv after 60 mins; type: ADME, organism-based; conditions: in vivo, 1 h
Femur [9] = assay: Biodistribution in ICR mouse Femur at 1.11 MBq, iv after 2 mins; type: ADME, organism-based; conditions: in vivo
Kidney [10] = assay: Biodistribution in ICR mouse Kidney at 1.11 MBq, iv after 30 mins; type: ADME, organism-based; conditions: in vivo, 0.5 h
Femur [11] = assay: Biodistribution in ICR mouse Femur at 1.11 MBq, iv after 60 mins; type: ADME, organism-based; conditions: in vivo, 1 h
Blood [12] = assay: Biodistribution in ICR mouse blood at 1.11 MBq, iv after 120 mins; type: ADME, organism-based; conditions: in vivo, 2 h
Lung [13] = assay: Biodistribution in ICR mouse Lung at 1.11 MBq, iv after 2 mins; type: ADME, organism-based; conditions: in vivo
Lung [14] = assay: Biodistribution in ICR mouse Lung at 1.11 MBq, iv after 30 mins; type: ADME, organism-based; conditions: in vivo, 0.5 h
Brain [15] = assay: Biodistribution in ICR mouse Brain at 1.11 MBq, iv after 120 mins; type: ADME, organism-based; conditions: in vivo, 2 h
Blood [16] = assay: Biodistribution in ICR mouse blood at 1.11 MBq, iv after 30 mins; type: ADME, organism-based; conditions: in vivo, 0.5 h
Kidney [17] = assay: Biodistribution in ICR mouse Kidney at 1.11 MBq, iv after 120 mins; type: ADME, organism-based; conditions: in vivo, 2 h
Lung [18] = assay: Biodistribution in ICR mouse Lung at 1.11 MBq, iv after 60 mins; type: ADME, organism-based; conditions: in vivo, 1 h
Brain [19] = assay: Biodistribution in ICR mouse Brain at 1.11 MBq, iv after 30 mins; type: ADME, organism-based; conditions: in vivo, 0.5 h
Kidney [20] = assay: Biodistribution in ICR mouse Kidney at 1.11 MBq, iv after 2 mins; type: ADME, organism-based; conditions: in vivo
Femur [21] = assay: Biodistribution in ICR mouse Femur at 1.11 MBq, iv after 30 mins; type: ADME, organism-based; conditions: in vivo, 0.5 h
Muscle tissue [22] = assay: Biodistribution in ICR mouse Muscle at 1.11 MBq, iv after 60 mins; type: ADME, organism-based; conditions: in vivo, 1 h
Muscle tissue [23] = assay: Biodistribution in ICR mouse Muscle at 1.11 MBq, iv after 2 mins; type: ADME, organism-based; conditions: in vivo
Blood [24] = assay: Biodistribution in ICR mouse blood at 1.11 MBq, iv after 60 mins; type: ADME, organism-based; conditions: in vivo, 1 h
Muscle tissue [25] = assay: Biodistribution in ICR mouse Muscle at 1.11 MBq, iv after 30 mins; type: ADME, organism-based; conditions: in vivo, 0.5 h
[26] = Octanol-water partition coefficient, log P of the compound by TLC analysis; type: physicochemical
Muscle tissue [27] = assay: Biodistribution in ICR mouse Muscle at 1.11 MBq, iv after 120 mins; type: ADME, organism-based; conditions: in vivo, 2 h
Heart [28] = assay: Biodistribution in ICR mouse heart at 1.11 MBq, iv after 2 mins; type: ADME, organism-based; conditions: in vivo
Liver [29] = assay: Biodistribution in ICR mouse Liver at 1.11 MBq, iv after 2 mins; type: ADME, organism-based; conditions: in vivo
Liver [30] = assay: Biodistribution in ICR mouse Liver at 1.11 MBq, iv after 60 mins; type: ADME, organism-based; conditions: in vivo, 1 h
Heart [31] = assay: Biodistribution in ICR mouse heart at 1.11 MBq, iv after 30 mins; type: ADME, organism-based; conditions: in vivo, 0.5 h
Spleen [32] = assay: Biodistribution in ICR mouse Spleen at 1.11 MBq, iv after 60 mins; type: ADME, organism-based; conditions: in vivo, 1 h
Femur [33] = assay: Biodistribution in ICR mouse Femur at 1.11 MBq, iv after 120 mins; type: ADME, organism-based; conditions: in vivo, 2 h
Lung [34] = assay: Biodistribution in ICR mouse Lung at 1.11 MBq, iv after 120 mins; type: ADME, organism-based; conditions: in vivo, 2 h
Liver [35] = assay: Biodistribution in ICR mouse Liver at 1.11 MBq, iv after 30 mins; type: ADME, organism-based; conditions: in vivo, 0.5 h
Spleen [36] = assay: Biodistribution in ICR mouse Spleen at 1.11 MBq, iv after 120 mins; type: ADME, organism-based; conditions: in vivo, 2 h
Heart [37] = assay: Biodistribution in ICR mouse heart at 1.11 MBq, iv after 60 mins; type: ADME, organism-based; conditions: in vivo, 1 h
Brain [38] = assay: Biodistribution in ICR mouse Brain at 1.11 MBq, iv after 2 mins; type: ADME, organism-based; conditions: in vivo
[39] = Ratio of drug uptake in hippocampus to cerebellum in transgenic Tg2576 mouse brain; conditions: in vivo
[40] = Binding affinity to amyloid beta (1 to 40) after 3 hrs using [125I]IMSB by gamma counter method
Mus musculus [41] = assay: In vivo binding affinity to amyloid beta (1 to 42) in double transgenic APP/PS-1 mouse brain at 100 uM after 30 mins by microscopy; type: functional, organism-based
Mus musculus [42] = assay: In vivo binding affinity to amyloid beta (1 to 42) in wild type mouse brain at 100 uM after 30 mins by microscopy; type: functional, organism-based

Compound: COc1ccc(/C=C/C(=O)/C=C(O)/C=C/c2ccc(OCC[18F])c(OC)c2)cc1OC
Drug uptake (Blood [2]): 9.76 % ID/g | Drug uptake (Spleen [3]): 16.41 % ID/g | Drug uptake (Liver [4]): 12.51 % ID/g | Drug uptake (Heart [5]): 1.54 % ID/g | Drug uptake (Spleen [6]): 20.8 % ID/g | Drug uptake (Kidney [7]): 2.25 % ID/g | Drug uptake (Brain [8]): 0.43 % ID/g | Drug uptake (Femur [9]): 1.86 % ID/g | Drug uptake (Kidney [10]): 4.01 % ID/g | Drug uptake (Femur [11]): 1 % ID/g | Drug uptake (Blood [12]): 0.67 % ID/g | Drug uptake (Lung [13]): 23.78 % ID/g | Drug uptake (Lung [14]): 3.94 % ID/g | Drug uptake (Brain [15]): 0.29 % ID/g | Drug uptake (Blood [16]): 1.26 % ID/g | Drug uptake (Kidney [17]): 1.42 % ID/g | Drug uptake (Lung [18]): 2.27 % ID/g | Drug uptake (Brain [19]): 0.45 % ID/g | Drug uptake (Kidney [20]): 10.95 % ID/g | Drug uptake (Femur [21]): 1.08 % ID/g | Drug uptake (Muscle tissue [22]): 0.47 % ID/g | Drug uptake (Muscle tissue [23]): 0.89 % ID/g | Drug uptake (Blood [24]): 0.89 % ID/g | Drug uptake (Muscle tissue [25]): 0.76 % ID/g | logP [26]: 2.4 | Drug uptake (Muscle tissue [27]): 0.37 % ID/g | Drug uptake (Heart [28]): 7.18 % ID/g | Drug uptake (Liver [29]): 38.83 % ID/g | Drug uptake (Liver [30]): 26.83 % ID/g | Drug uptake (Heart [31]): 1.68 % ID/g | Drug uptake (Spleen [32]): 10.59 % ID/g | Drug uptake (Femur [33]): 1.62 % ID/g | Drug uptake (Lung [34]): 2.19 % ID/g | Drug uptake (Liver [35]): 43.02 % ID/g | Drug uptake (Spleen [36]): 8.08 % ID/g | Drug uptake (Heart [37]): 1.3 % ID/g | Drug uptake (Brain [38]): 1.44 % ID/g

Compound: COc1cc(/C=C/C(=O)CC(=O)/C=C/c2ccc(O)c(OC)c2)ccc1O [CURCUMIN]
Ki [1]: 3.57 nM

Compound: COc1cc(/C=C/C(=O)/C=C(O)/C=C/c2ccc(OCCOCCOCCF)c(OC)c2)ccc1O
Ki [1]: 4.44 nM

Compound: COc1cc(/C=C/C(O)=C/C(=O)/C=C/c2ccc(OCCC[18F])c(OC)c2)ccc1O
Ratio [39]: 3 | Ki [40]: 0.07 nM

Compound: COc1cc(/C=C/C(=O)/C=C(O)/C=C/c2ccc(OCCOCCF)c(OC)c2)ccc1O
Ki [1]: 4.65 nM

Compound: COc1ccc(/C=C/c2ccc(/C=C/c3ccc(OC)c(C(=O)O)c3)c([125I])c2)cc1C(=O)O
Kd [1]: 1.19 nM

Second part, led by results:

Ki [1]: 0.43 nM
Compound: O=C(O)c1cc(/N=N/c2ccc(-c3ccc(/N=N/c4ccc(O)c(C(=O)O)c4)cc3)cc2)ccc1O [CHRYSAMINE G]

Ki [1]: 3.01 nM
Compound: COc1ccc(/C=C/C(=O)/C=C(O)/C=C/c2ccc(OCCOCCF)c(OC)c2)cc1OC

Ki [1]: 1.7 nM
Compound: [11CH3]Nc1ccc(-c2nc3ccc(O)cc3s2)cn1

Ki [1]: 2.69 nM
Compound: COc1ccc(/C=C/C(=O)/C=C(O)/C=C/c2ccc(OCCCF)c(OC)c2)cc1OC

Ki [1]: 2.12 nM
Compound: COc1ccc(/C=C/C(=O)/C=C(O)/C=C/c2ccc(OCCF)c(OC)c2)cc1OC
Activity (Mus musculus [41]): Active | Activity (Mus musculus [42]): inactive
